Test results as given in BigSolDB 2.1.

CC[C@@H](C(=O)[C@@H](C)[C@@H](O)[C@H](C)CCc1ccc(C)c(O)c1C(=O)[O-])[C@H]1O[C@](CC)([C@H]2CC[C@](O)(CC)[C@H](C)O2)C[C@@H]1C.[Na+]
solubility (mole fraction)
Settings	283.15 K	288.15 K	293.15 K	298.15 K	303.15 K	308.15 K	313.15 K	318.15 K	323.15 K
in acetone	0.0117	0.0119	0.0121	0.0123	0.0125	0.0127	0.0129	0.0132	0.0135
in ethanol	0.00223	0.00246	0.0026	0.00311	0.00364	0.00419	0.00456	0.00502	0.00564
in ethyl acetate	0.00531	0.00538	0.00548	0.00556	0.00566	0.00575	0.00587	0.00596	0.00602
in isopropanol	0.00085	0.00095	0.00106	0.00117	0.00136	0.00161	0.00191	0.00211	0.00233
in methanol	0.00259	0.00293	0.0031	0.00352	0.00391	0.00413	0.00456	0.00508	0.00577
